In patent US20220347171A1, “TREATMENT OF PRURIGO NODULARIS” (TREVI THERAPEUTICS, INC., priority 2016, published 2022):
Counter-ions that a name gives are not always drawn.

Test system: prurigo nodularis patients
Assay: TR03ext (Example 3): PAS prurigo lesions with excoriations/crusts; Stage 0 0%, Stage 1 1%-25%, Stage 2 26%-50%, Stage 3 51%-75%, Stage 4 76%-100%
Assay type: in vivo, human
Source text: In some embodiments, after the treatment the patient experiences a substantial reduction of itch that is characterized by at least one category/stage improvement in Prurigo Activity Score (PAS). In particular embodiments, after the treatment the patient experiences a reduction of itch that results in at least one category/stage improvement in Prurigo Activity Score (PAS) domains of number of prurigo lesions, prurigo lesions with excoriations/crusts and/or healed prurigo lesions. The PAS consists of 7 qualitative and quantitative measurements related to the examination of the skin. Type, number, distribution, affected body parts, and quantitative number of lesions in a representative body part are documented. The biggest lesion and the most representative lesion are monitored with documentation of height and area measurements. Prurigo lesion activity is recorded as a percentages based on their stage (0-4). In some embodiments, number measurements of lesions on the body have four numerical categories: 0, 1-19, 20-100 and >100. In some embodiments, prurigo lesions with excoriations/crusts have five categories: Stage 4 (76%-100%), Stage 3 (51%-75%), Stage 2 (26%-50%), Stage 1 (1-25%) and Stage 0 (0%). In some embodiments, healed prurigo lesions have five categories: Stage 4 (0-24%), Stage 3 (25-49%), Stage 2 (50-74%), Stage 1 (75%-99%), Stage 0 (100%).
This clinical study was a Phase 2 Open Label Extension Study (clinical study TR03ext) of the randomized, double-blind, 3-parallel arm, placebo controlled dose ranging study described in Example 2. All those subjects who were randomized, and then completed Example 2 study, were eligible to participate in the Extension Study.
The primary endpoint was a description of the overall incidence and nature of Treatment-Emergent AEs (TEAES) during weeks 5-50 of the study. Exploratory efficacy endpoints included Change from Baseline patient reported outcome measures of Worst itch NRS, itchy VRS and ItchyQoL, by Treatment Period study visit and Baseline NRS score. There was also an assessment of any potential skin lesion changes over time using the metrics of the PAS.
Patients in Extension Study were titrated over a dose range of 30 mg QD to 180 mg BID based on tolerability. The selected dose range was based on Example 2 study whereby patients were titrated from a 30 mg QD dose either to 30 mg BID, 60 mg BID, 90 mg BID, 120 mg BID or a 180 mg BID dose. The highest dose proposed was 180 mg BID (360 mg daily dose), and was well below the highest recommended daily treatment of 160 mg IV (equivalent to 960 mg oral) for the current marketed parenteral administered product.
Table 15, 16 and 17 display excoriations/crusts lesion PAS data for subjects who received treatment for at least 6 months, subjects who received treatment for at least 9 months and subjects who completed 50 weeks of treatment in the study, respectively. The status of the prurigo lesions with excoriations/crusts is reported as percentages based on their stage (0-4) using a grading system: Stage 0 (0% excoriations/crusts); Stage 1 (1%-25% excoriations/crusts); Stage 2 (26%-50% excoriations/crusts); Stage 3 (51%-75% excoriations/crusts); Stage 4: (76%-100% excoriations/crusts). Thus, the higher the stage, the more severe is the prurigo skin pathology.

[1] = treatment for at least 6 months
[2] = treatment for at least 9 months

## Oc1ccc2c3c1OC1[C@@H](O)CC[C@@]4(O)[C@@H](C2)N(CC2CCC2)CC[C@]314 (stereo partly drawn) [Nalbuphine, 17-(cyclobutylmethyl)-4,5α-epoxymorphinian-3, 6α, 14-triol, hydrochloride]
After 6 months, 13/16
  Subjects with at least one category improvement (lesser stage) in the percentage of excoriations/crust lesions (PAS): 81.2%
After 9 months, 9/13
  Subjects with at least one category improvement (lesser stage) in the percentage of excoriations/crust lesions (PAS): 69.2%
After 12 months, 8/12
  Subjects with at least one category improvement (lesser stage) in the percentage of excoriations/crust lesions (PAS): 66.6%
Treatment for 50 weeks
  Excoriated/Crusts PAS Category Shift: Baseline Stage 0 to Last Observed Stage 0: 1 (7.1%) Number (%) of Subjects
  Excoriated/Crusts PAS Category Shift: Baseline Stage 0 to Last Observed Stage 1: 0 Number (%) of Subjects
  Excoriated/Crusts PAS Category Shift: Baseline Stage 0 to Last Observed Stage 2: 0 Number (%) of Subjects
  Excoriated/Crusts PAS Category Shift: Baseline Stage 0 to Last Observed Stage 3: 0 Number (%) of Subjects
  Excoriated/Crusts PAS Category Shift: Baseline Stage 0 to Last Observed Stage 4: 0 Number (%) of Subjects
  Excoriated/Crusts PAS Category Shift: Baseline Stage 1 to Last Observed Stage 0: 0 Number (%) of Subjects
  Excoriated/Crusts PAS Category Shift: Baseline Stage 1 to Last Observed Stage 1: 1 (7.7%) Number (%) of Subjects
  Excoriated/Crusts PAS Category Shift: Baseline Stage 1 to Last Observed Stage 2: 0 Number (%) of Subjects
  Excoriated/Crusts PAS Category Shift: Baseline Stage 1 to Last Observed Stage 3: 0 Number (%) of Subjects
  Excoriated/Crusts PAS Category Shift: Baseline Stage 1 to Last Observed Stage 4: 1 (7.7%) Number (%) of Subjects
  Excoriated/Crusts PAS Category Shift: Baseline Stage 2 to Last Observed Stage 0: 0 Number (%) of Subjects
  Excoriated/Crusts PAS Category Shift: Baseline Stage 2 to Last Observed Stage 1: 5 (38.5%) Number (%) of Subjects
  Excoriated/Crusts PAS Category Shift: Baseline Stage 2 to Last Observed Stage 2: 0 Number (%) of Subjects
  Excoriated/Crusts PAS Category Shift: Baseline Stage 2 to Last Observed Stage 3: 0 Number (%) of Subjects
  Excoriated/Crusts PAS Category Shift: Baseline Stage 2 to Last Observed Stage 4: 0 Number (%) of Subjects
  Excoriated/Crusts PAS Category Shift: Baseline Stage 3 to Last Observed Stage 0: 0 Number (%) of Subjects
  Excoriated/Crusts PAS Category Shift: Baseline Stage 3 to Last Observed Stage 1: 0 Number (%) of Subjects
  Excoriated/Crusts PAS Category Shift: Baseline Stage 3 to Last Observed Stage 2: 2 (15.4%) Number (%) of Subjects
  Excoriated/Crusts PAS Category Shift: Baseline Stage 3 to Last Observed Stage 3: 1 (7.7%) Number (%) of Subjects
  Excoriated/Crusts PAS Category Shift: Baseline Stage 3 to Last Observed Stage 4: 0 Number (%) of Subjects
  Excoriated/Crusts PAS Category Shift: Baseline Stage 4 to Last Observed Stage 0: 1 (7.7%) Number (%) of Subjects
  Excoriated/Crusts PAS Category Shift: Baseline Stage 4 to Last Observed Stage 1: 0 Number (%) of Subjects
  Excoriated/Crusts PAS Category Shift: Baseline Stage 4 to Last Observed Stage 2: 0 Number (%) of Subjects
  Excoriated/Crusts PAS Category Shift: Baseline Stage 4 to Last Observed Stage 3: 0 Number (%) of Subjects
  Excoriated/Crusts PAS Category Shift: Baseline Stage 4 to Last Observed Stage 4: 1 (7.7%) Number (%) of Subjects
  Excoriated/Crusts PAS: Last Observed PAS Result Stage 0: 2 (15.4) Number (%) of Subjects
  Excoriated/Crusts PAS: Last Observed PAS Result Stage 1: 6 (46.2) Number (%) of Subjects
  Excoriated/Crusts PAS: Last Observed PAS Result Stage 2: 2 (15.4) Number (%) of Subjects
  Excoriated/Crusts PAS: Last Observed PAS Result Stage 3: 1 (7.7) Number (%) of Subjects
  Excoriated/Crusts PAS: Last Observed PAS Result Stage 4: 2 (15.4) Number (%) of Subjects
[1]
  Excoriated/Crusts PAS Category Shift: Baseline Stage 0 to Last Observed Stage 0: 1 (5.9%) Number (%) of Subjects
  Excoriated/Crusts PAS Category Shift: Baseline Stage 0 to Last Observed Stage 1: 0 Number (%) of Subjects
  Excoriated/Crusts PAS Category Shift: Baseline Stage 0 to Last Observed Stage 2: 0 Number (%) of Subjects
  Excoriated/Crusts PAS Category Shift: Baseline Stage 0 to Last Observed Stage 3: 0 Number (%) of Subjects
  Excoriated/Crusts PAS Category Shift: Baseline Stage 0 to Last Observed Stage 4: 0 Number (%) of Subjects
  Excoriated/Crusts PAS Category Shift: Baseline Stage 1 to Last Observed Stage 0: 0 Number (%) of Subjects
  Excoriated/Crusts PAS Category Shift: Baseline Stage 1 to Last Observed Stage 1: 1 (5.9%) Number (%) of Subjects
  Excoriated/Crusts PAS Category Shift: Baseline Stage 1 to Last Observed Stage 2: 0 Number (%) of Subjects
  Excoriated/Crusts PAS Category Shift: Baseline Stage 1 to Last Observed Stage 3: 0 Number (%) of Subjects
  Excoriated/Crusts PAS Category Shift: Baseline Stage 1 to Last Observed Stage 4: 1 (5.9%) Number (%) of Subjects
  Excoriated/Crusts PAS Category Shift: Baseline Stage 2 to Last Observed Stage 0: 1 (5.9%) Number (%) of Subjects
  Excoriated/Crusts PAS Category Shift: Baseline Stage 2 to Last Observed Stage 1: 5 (29.4%) Number (%) of Subjects
  Excoriated/Crusts PAS Category Shift: Baseline Stage 2 to Last Observed Stage 2: 0 Number (%) of Subjects
  Excoriated/Crusts PAS Category Shift: Baseline Stage 2 to Last Observed Stage 3: 0 Number (%) of Subjects
  Excoriated/Crusts PAS Category Shift: Baseline Stage 2 to Last Observed Stage 4: 0 Number (%) of Subjects
  Excoriated/Crusts PAS Category Shift: Baseline Stage 3 to Last Observed Stage 0: 0 Number (%) of Subjects
  Excoriated/Crusts PAS Category Shift: Baseline Stage 3 to Last Observed Stage 1: 1 (5.9%) Number (%) of Subjects
  Excoriated/Crusts PAS Category Shift: Baseline Stage 3 to Last Observed Stage 2: 2 (11.8%) Number (%) of Subjects
  Excoriated/Crusts PAS Category Shift: Baseline Stage 3 to Last Observed Stage 3: 1 (5.9%) Number (%) of Subjects
  Excoriated/Crusts PAS Category Shift: Baseline Stage 3 to Last Observed Stage 4: 0 Number (%) of Subjects
  Excoriated/Crusts PAS Category Shift: Baseline Stage 4 to Last Observed Stage 0: 1 (5.9%) Number (%) of Subjects
  Excoriated/Crusts PAS Category Shift: Baseline Stage 4 to Last Observed Stage 1: 2 (11.8%) Number (%) of Subjects
  Excoriated/Crusts PAS Category Shift: Baseline Stage 4 to Last Observed Stage 2: 0 Number (%) of Subjects
  Excoriated/Crusts PAS Category Shift: Baseline Stage 4 to Last Observed Stage 3: 0 Number (%) of Subjects
  Excoriated/Crusts PAS Category Shift: Baseline Stage 4 to Last Observed Stage 4: 1 (5.9%) Number (%) of Subjects
  Excoriated/Crusts PAS: Last Observed PAS Result Stage 0: 3 (17.6) Number (%) of Subjects
  Excoriated/Crusts PAS: Last Observed PAS Result Stage 1: 9 (52.9) Number (%) of Subjects
  Excoriated/Crusts PAS: Last Observed PAS Result Stage 2: 2 (11.8) Number (%) of Subjects
  Excoriated/Crusts PAS: Last Observed PAS Result Stage 3: 1 (5.9) Number (%) of Subjects
  Excoriated/Crusts PAS: Last Observed PAS Result Stage 4: 2 (11.8) Number (%) of Subjects
[2]
  Excoriated/Crusts PAS Category Shift: Baseline Stage 0 to Last Observed Stage 0: 1 (7.1%) Number (%) of Subjects
  Excoriated/Crusts PAS Category Shift: Baseline Stage 0 to Last Observed Stage 1: 0 Number (%) of Subjects
  Excoriated/Crusts PAS Category Shift: Baseline Stage 0 to Last Observed Stage 2: 0 Number (%) of Subjects
  Excoriated/Crusts PAS Category Shift: Baseline Stage 0 to Last Observed Stage 3: 0 Number (%) of Subjects
  Excoriated/Crusts PAS Category Shift: Baseline Stage 0 to Last Observed Stage 4: 0 Number (%) of Subjects
  Excoriated/Crusts PAS Category Shift: Baseline Stage 1 to Last Observed Stage 0: 0 Number (%) of Subjects
  Excoriated/Crusts PAS Category Shift: Baseline Stage 1 to Last Observed Stage 1: 1 (7.1%) Number (%) of Subjects
  Excoriated/Crusts PAS Category Shift: Baseline Stage 1 to Last Observed Stage 2: 0 Number (%) of Subjects
  Excoriated/Crusts PAS Category Shift: Baseline Stage 1 to Last Observed Stage 3: 0 Number (%) of Subjects
  Excoriated/Crusts PAS Category Shift: Baseline Stage 1 to Last Observed Stage 4: 1 (7.1%) Number (%) of Subjects
  Excoriated/Crusts PAS Category Shift: Baseline Stage 2 to Last Observed Stage 0: 0 Number (%) of Subjects
  Excoriated/Crusts PAS Category Shift: Baseline Stage 2 to Last Observed Stage 1: 5 (35.7%) Number (%) of Subjects
  Excoriated/Crusts PAS Category Shift: Baseline Stage 2 to Last Observed Stage 2: 0 Number (%) of Subjects
  Excoriated/Crusts PAS Category Shift: Baseline Stage 2 to Last Observed Stage 3: 0 Number (%) of Subjects
  Excoriated/Crusts PAS Category Shift: Baseline Stage 2 to Last Observed Stage 4: 0 Number (%) of Subjects
  Excoriated/Crusts PAS Category Shift: Baseline Stage 3 to Last Observed Stage 0: 0 Number (%) of Subjects
  Excoriated/Crusts PAS Category Shift: Baseline Stage 3 to Last Observed Stage 1: 0 Number (%) of Subjects
  Excoriated/Crusts PAS Category Shift: Baseline Stage 3 to Last Observed Stage 2: 2 (14.3%) Number (%) of Subjects
  Excoriated/Crusts PAS Category Shift: Baseline Stage 3 to Last Observed Stage 3: 1 (7.1%) Number (%) of Subjects
  Excoriated/Crusts PAS Category Shift: Baseline Stage 3 to Last Observed Stage 4: 0 Number (%) of Subjects
  Excoriated/Crusts PAS Category Shift: Baseline Stage 4 to Last Observed Stage 0: 1 (7.1%) Number (%) of Subjects
  Excoriated/Crusts PAS Category Shift: Baseline Stage 4 to Last Observed Stage 1: 1 (7.1%) Number (%) of Subjects
  Excoriated/Crusts PAS Category Shift: Baseline Stage 4 to Last Observed Stage 2: 0 Number (%) of Subjects
  Excoriated/Crusts PAS Category Shift: Baseline Stage 4 to Last Observed Stage 3: 0 Number (%) of Subjects
  Excoriated/Crusts PAS Category Shift: Baseline Stage 4 to Last Observed Stage 4: 1 (7.1%) Number (%) of Subjects
  Excoriated/Crusts PAS: Last Observed PAS Result Stage 0: 2 (14.3) Number (%) of Subjects
  Excoriated/Crusts PAS: Last Observed PAS Result Stage 1: 7 (50.0) Number (%) of Subjects
  Excoriated/Crusts PAS: Last Observed PAS Result Stage 2: 2 (14.3) Number (%) of Subjects
  Excoriated/Crusts PAS: Last Observed PAS Result Stage 3: 1 (7.1) Number (%) of Subjects
  Excoriated/Crusts PAS: Last Observed PAS Result Stage 4: 2 (14.3) Number (%) of Subjects
